Earlier results as cited in publication PMC10343355, “Finding the Right Solvent: A Novel Screening Protocol for Identifying Environmentally Friendly and Cost-Effective Options for Benzenesulfonamide” (Molecules, 2023).
Where two headings read alike, the source gives them in different places.

Design: method as in Li et al.
Conditions: ref Li et al., cited from earlier work

Structure (SMILES): NS(=O)(=O)c1ccccc1 [BSA, Benzenesulfonamide]
- log(x1)exp (Acetonitrile, 0.00 °C): -1.46
- log(x1)exp (Acetonitrile, 6.00 °C): -1.40
- log(x1)exp (Acetonitrile, 10.30 °C): -1.35
- log(x1)exp (Acetonitrile, 15.80 °C): -1.30
- log(x1)exp (Acetonitrile, 20.10 °C): -1.25
- log(x1)exp (Acetonitrile, 25.70 °C): -1.19
- log(x1)exp (Acetonitrile, 30.00 °C): -1.14
- log(x1)exp (Acetonitrile, 35.00 °C): -1.09
- log(x1)exp (Acetonitrile, 40.00 °C): -1.03
- log(x1)exp (Acetonitrile, 44.50 °C): -0.98
- log(x1)exp (Acetonitrile, 50.00 °C): -0.93
- log(x1)exp (Cyclopentanone, 0.00 °C): -0.86
- log(x1)exp (Cyclopentanone, 6.00 °C): -0.84
- log(x1)exp (Cyclopentanone, 10.70 °C): -0.82
- log(x1)exp (Cyclopentanone, 16.00 °C): -0.80
- log(x1)exp (Cyclopentanone, 20.60 °C): -0.78
- log(x1)exp (Cyclopentanone, 26.00 °C): -0.75
- log(x1)exp (Cyclopentanone, 30.60 °C): -0.73
- log(x1)exp (Cyclopentanone, 36.00 °C): -0.70
- log(x1)exp (Cyclopentanone, 40.20 °C): -0.68
- log(x1)exp (Dichloromethane, 0.00 °C): -2.87
- log(x1)exp (Dichloromethane, 6.00 °C): -2.76
- log(x1)exp (Dichloromethane, 10.30 °C): -2.67
- log(x1)exp (Dichloromethane, 15.80 °C): -2.56
- log(x1)exp (Dichloromethane, 20.10 °C): -2.48
- log(x1)exp (Dichloromethane, 25.70 °C): -2.37
- log(x1)exp (Dichloromethane, 30.00 °C): -2.31
- log(x1)exp (Dichloromethane, 35.00 °C): -2.22
- log(x1)exp (Dichloromethane, 39.00 °C): -2.16
- log(x1)exp (Ethyl Acetate, 0.00 °C): -1.49
- log(x1)exp (Ethyl Acetate, 6.00 °C): -1.44
- log(x1)exp (Ethyl Acetate, 10.30 °C): -1.41
- log(x1)exp (Ethyl Acetate, 15.80 °C): -1.37
- log(x1)exp (Ethyl Acetate, 20.10 °C): -1.33
- log(x1)exp (Ethyl Acetate, 25.70 °C): -1.29
- log(x1)exp (Ethyl Acetate, 30.00 °C): -1.25
- log(x1)exp (Ethyl Acetate, 35.00 °C): -1.21
- log(x1)exp (Ethyl Acetate, 40.00 °C): -1.17
- log(x1)exp (Ethyl Acetate, 44.50 °C): -1.13
- log(x1)exp (Ethyl Acetate, 50.00 °C): -1.09
- log(x1)exp (Ethyl Formate, 0.00 °C): -1.74
- log(x1)exp (Ethyl Formate, 6.00 °C): -1.69
- log(x1)exp (Ethyl Formate, 10.30 °C): -1.64
- log(x1)exp (Ethyl Formate, 15.80 °C): -1.59
- log(x1)exp (Ethyl Formate, 20.10 °C): -1.54
- log(x1)exp (Ethyl Formate, 25.70 °C): -1.48
- log(x1)exp (Ethyl Formate, 30.00 °C): -1.44
- log(x1)exp (Ethyl Formate, 35.00 °C): -1.38
- log(x1)exp (Ethyl Formate, 40.00 °C): -1.33
- log(x1)exp (Ethyl Formate, 44.50 °C): -1.28
- log(x1)exp (Ethyl Formate, 50.00 °C): -1.22
- log(x1)exp (Isobutanol, 0.00 °C): -2.41
- log(x1)exp (Isobutanol, 6.00 °C): -2.35
- log(x1)exp (Isopentanol, 0.00 °C): -2.38
- log(x1)exp (Isopentanol, 6.00 °C): -2.31
- log(x1)exp (Isopentanol, 10.70 °C): -2.25
- log(x1)exp (Isopentanol, 16.00 °C): -2.17
- log(x1)exp (Isopentanol, 20.60 °C): -2.09
- log(x1)exp (Isopentanol, 26.00 °C): -2.00
- log(x1)exp (Isopentanol, 30.60 °C): -1.92
- log(x1)exp (Isopentanol, 36.00 °C): -1.83
- log(x1)exp (Isopentanol, 40.20 °C): -1.76
- log(x1)exp (Isopentanol, 46.00 °C): -1.68
- log(x1)exp (Isopentanol, 51.30 °C): -1.60
- log(x1)exp (Methanol, 0.00 °C): -1.53
- log(x1)exp (Methanol, 6.00 °C): -1.49
- log(x1)exp (Methanol, 10.30 °C): -1.45
- log(x1)exp (Methanol, 15.80 °C): -1.39
- log(x1)exp (Methanol, 20.10 °C): -1.34
- log(x1)exp (Methanol, 25.70 °C): -1.27
- log(x1)exp (Methanol, 30.00 °C): -1.21
- log(x1)exp (Methanol, 40.00 °C): -1.09
- log(x1)exp (Methanol, 44.50 °C): -1.03
- log(x1)exp (Methanol, 50.00 °C): -0.97
- log(x1)exp (n-Butanol, 46.00 °C): -1.56
- log(x1)exp (n-Butanol, 51.30 °C): -1.49
- log(x1)exp (n-Pentanol, 36.00 °C): -1.78
- log(x1)exp (n-Pentanol, 40.20 °C): -1.73
- log(x1)exp (n-Pentanol, 46.00 °C): -1.63
- log(x1)exp (n-Pentanol, 51.30 °C): -1.56
- log(x1)exp (n-Propanol, 0.00 °C): -2.09
- log(x1)exp (n-Propanol, 6.00 °C): -2.04
- log(x1)exp (n-Propanol, 10.70 °C): -1.99
- log(x1)exp (n-Propanol, 16.00 °C): -1.91
- log(x1)exp (n-Propanol, 20.60 °C): -1.84
- log(x1)exp (n-Propanol, 26.00 °C): -1.76
- log(x1)exp (n-Propanol, 30.60 °C): -1.68
- log(x1)exp (n-Propanol, 36.00 °C): -1.60
- log(x1)exp (n-Propanol, 40.20 °C): -1.53
- log(x1)exp (n-Propanol, 46.00 °C): -1.44
- log(x1)exp (n-Propanol, 51.30 °C): -1.37
- log(x1)exp (solvent Isobutanol, T 10.70 °C, mole fraction solubility): -2.27
- log(x1)exp (solvent Isobutanol, T 16.00 °C, mole fraction solubility): -2.18
- log(x1)exp (solvent Isobutanol, T 20.60 °C, mole fraction solubility): -2.09
- log(x1)exp (solvent Isobutanol, T 26.00 °C, mole fraction solubility): -2.00
- log(x1)exp (solvent Isobutanol, T 30.60 °C, mole fraction solubility): -1.92
- log(x1)exp (solvent Isobutanol, T 36.00 °C, mole fraction solubility): -1.83
- log(x1)exp (solvent Isobutanol, T 40.20 °C, mole fraction solubility): -1.75
- log(x1)exp (solvent Isobutanol, T 46.00 °C, mole fraction solubility): -1.67
- log(x1)exp (solvent Isobutanol, T 51.30 °C, mole fraction solubility): -1.59
